We go through one substance from patent publication EP1500662A2, “Stabilizing peptides” (CORNELL RESEARCH FOUNDATION, INC., priority 2003, dated 2005).

Type in all cases: cell-based
The test system of assay [1] is HIV-1 94ZW103. As for the experimental part:
(§1) PBMC Infectivity Assay. PBMC were isolated from healthy blood donors by Ficoll-Hypaque centrifugation and then stimulated for 2-3 days with phytohemagglutinin (5 µg/ml) and interleukin-2 (100 U/ml). The inhibition assay was performed essentially as described previously (Trkola, A., T. Ketas, V. N. KewalRamani, F. Endorf, J. M. Binley, H. Katinger, J. Robinson, D. R. Littman, and J. P. Moore. 1998. Neutralization sensitivity of human immunodeficiency virus type 1 primary isolates to antibodies and CD4-based reagents is independent of co-receptor usage. J. Virol. 72:1876-1885; Trkola, A., W. A. Paxton, S. P. Monard, J. A. Hoxie, M. A. Siani, D. A. Thompson, L. Wu, C. R. Mackay, R. Horuk, and J. P. Moore. 1998. Genetic subtype-independent inhibition of human immunodeficiency virus type 1 replication by CC and CXC chemokines. J. Virol. 72:396-404).
(§2) Briefly, the virus inoculum was adjusted to 400-1,000 TCID50/ml in assay medium (RPMI 1640, 10% FCS, 100 U of interleukin-2 per ml, glutamine, and peptides), and 50 µl aliquots were incubated with serial dilutions of the peptide inhibitors (50 µl) for 1 h at 37 °C. […] RBMC (4 x 10^5 in 100 µl of medium) were then added. The final concentration of virus in the cultures was 20-50 TCID50/well, corresponding to 100-250 TCID50/ml. […] The viral inocula in 50% tissue culture infectious doses (TCID50) were 400-1000/ml.

In assay [2] the test system is HIV-1 CM.235. How it is done: as §1, §2
In assay [3] the test system is HIV-1 Case C 7/86. How it is done:
as §1, §2

The test system of assay [4] is HIV-1 DJ258. As for the experimental part: as §1, §2
The test system of assay [5] is HIV-1 JFRL. As for the experimental part: as §1, §2
The test system of assay [6] is HIV-1 NL4-3. As for the experimental part: as §1, §2
Assay [7] relates to HIV-1 UG270. How it is done:
as §1, §2

The term IC50 denotes the concentration needed to halve the response being measured. A higher IC50 goes with a need for much substance.

As for Enfuvirtide, the IC50 in assay [1] turned out to be 0.013 µM; in assay [2], 0.079 µM; in assay [3] it was 0.004 µM; in assay [4] it was 0.083 µM; in assay [5], 0.009 µM; in assay [6], 0.035 µM. The same substance registered a concentration for half-maximal inhibition (IC50) in assay [7] of 0.257 µM.
